The values that follow are results of earlier work, collected in patent US20020082306A1, “Aqueous formulation of beta carotene” (Sanochemia Pharmazeutika Aktiengesellschaft, priority 1998, published 2002).

The conditions of data set [1]: in the presence of light and heat.

Take `CC1=C(/C=C/C(C)=C/C=C/C(C)=C/C=C/C=C(C)/C=C/C=C(C)/C=C/C2=C(C)CCCC2(C)C)C(C)(C)CCC1` [Beta-carotene, beta-carotene]: the solubility in cyclohexane result (cyclohexane) was “hardly soluble”. Also, where the note is “ethanol”, the solubility in ethanol entry is given as “hardly soluble”. For the same compound, the solubility in ether entry (ether) is listed as “hardly soluble”. The solubility in water result (water as well as the usually employed aqueous formulations) is on record as “practically insoluble”. In addition, in data set [1], the “decomposition of dissolved beta-carotene by oxygen from ambient air” value is on record as “easily decomposed”.
